Reference: US20230134986A1, “GLUCOSE TRIPTOLIDE CONJUGATES AND USES THEREOF” (The Johns Hopkins University, priority 2020, published 2023)
“Also recorded” adds a separate entry of the source.

What was measured:
MCF-7 = MCF-7 proliferation under hypoxia ([3H]-thymidine incorporation); format: cell-based, human; details: MCF-7, 1% O2, 48 h post treatment
[1] = system: T7115 (C342T XPB knock-in HEK293T cells); experiment: Proliferation of XPB C342T knock-in cell line T7115 ([3H]-thymidine incorporation); format: cell-based, human; details: C342T XPB knock-in versus isogenic WT 293T
Description: Cells and culture conditions. Primary astrocytes (Lonza, Walkersville, Md.; ABM™ Basal Media with AGM™ SingleQuots™ Supplement Pack), fibroblast (ATCC; Fibroblast Basal Medium (ATCC© PCS-201-030™) with Fibroblast Growth Kit-Serum-free (ATCC© PCS-201-040™)), airway epithelial cell (ATCC; Airway Epithelial Cell Basal Medium (ATCC© PCS-300-030™) with Bronchial Epithelial Cell Growth Kit (ATCC© PCS-300-040™)), renal proximal tubule (ATCC; Renal Epithelial Cell Basal Medium (ATCC© PCS-400-030™) with Renal Epithelial Cell Growth Kit (ATCC© PCS-400-040™)), prostate epithelial cell (Lonza; PrEGM™ BulletKit™) and mammary epithelial cell (Lonza; MEBM™ BulletKit™) were kept in a humidified incubator at 37° C. adjusted to 5% CO2. […]

HeLa = HeLa proliferation under hypoxia ([3H]-thymidine incorporation); format: cell-based, human; details: 1% O2, 48 h post treatment
TFIIH = molecular target: T1, TFIIH (Homo sapiens, UniProt P19447); experiment: DNA-dependent ATPase activity assay of TFIIH; format: biochemical
T1 construct: made in house
Method: ATPase activity assay. The TFIIH complex was purified and its DNA-dependent ATPase assay was performed as previously described (Titov et al. (2011) Nat. Chem. Biol. 7:182-88). Briefly, a 10-μl reaction mixture contained 20 mM Tris (pH 7.9), 4 mM MgCl2, 1 μM of ATP, 0.1 μCi [^γ-^32P]ATP (3000 Ci/mmol), 100 μg/ml BSA, 100 nM RNA Polymerase II promoter positive control DNA, 1 nM TFIIH and indicated concentrations of triptolide or its analogs. The reactions were started by either addition of TFIIH for 2 hr and stopped by addition of 2 μl of 0.5 M EDTA. An aliquot of 1 μl reaction mixture was spotted on PEI-cellulose (sigma) and the chromatogram was developed with 0.5 M LiCi and 1 M HCOOH. The percent of ATP hydrolysis was quantified using a Typhoon FLA 9500 Variable Imager (GE Healthcare).

[2] = Stability of glutriptolides in human serum (HPLC-MS); format: in vitro ADME; details: incubation for up to 72 h
Method: Stability of glutriptolides in human serum. Human serum (Sigma, 10% in DMEM media) was treated with 10 μM drug (triptolide or glutriptolides) at room temperature for various time points. The incubation was stopped by placing samples on dry ice followed by overnight storage in −80° C. Frozen samples were then lyophilized and reconstituted in DMSO at room temperature for an hour. Samples were centrifuged at 12,000 RPM for 10 minutes and supernatants loaded into an HPLC-MS with the following conditions: (Varian pursuit XR5 Diphenyl 150×4.6 mm; A phase: Millipore water with 0.1% HCOOH; B phase: Acetonitrile with 0.1% HCOOH; 0-6 min: […]; 6-24 min: 5% B-100% B; 24-28 min: 100% B; 28-29 min: 100% B5% B; 29-30 min: 5% B).

With CC(C)[C@]12O[C@H]1[C@@H]1O[C@]13[C@]1(O[C@H]1C[C@H]1C4=C(CC[C@@]13C)C(=O)OC4)[C@@H]2OC(=O)CCCO[C@@H]1OC(CO)[C@@H](O)C(O)C1O (stereo in doubt) [Compound 1] the “effect of hypoxia on anti-proliferative effect” value (MCF-7) was “modest enhancement”, the “sensitivity of T7115 mutant line (proliferation)” value [1] was “resistant” and the “effect of hypoxia on anti-proliferative effect” value (HeLa) was “enhances the anti-proliferative effect”. For the same molecule, the “inhibition of ATPase activity of TFIIH” value (TFIIH) was “only a small fraction of the activity was affected; also recorded: does not inhibit” and the “stability in human serum” value [2] was “remained largely intact”.
